Source: US20220235088A1 (Memorial Sloan-Kettering Cancer Center, priority 2019, published 2022)
In brackets after ≈: the same amount, converted by molar mass. Several values for one entry are separate records, joined by “and”; a condition that tells them apart may be missing. Identical values can stand only once. Entries after “also recorded” stand apart in the source; their conditions may differ.

Columns and labels:
E. coli MenE(wt) = molecular target: T1, E. coli MenE(wt) (Escherichia coli, UniProt P37353); assay: Isothermal titration calorimetry, wild-type MenE; format: binding
T1 construct: His6 (N); made in house; host or cells: E. coli BL21(DE3) pLysS
Experimental: (§1) ITC was performed using VP-ITC instrument at 22° C. Inhibitor (1 mM) and E. coli MenE(wt) (30 μM) were prepared in 20 mM NaHPO4, pH 7.4 buffer containing 150 mM NaCl and 1 mM MgCl2. From the injection syringe, the inhibitor was titrated into the sample cell containing 1.8 mL solution of MenE. The data were fit to a single-binding site model with the Origin software package.
Next. the binding affinity of the 5 with E. coli MenE was deteremined using isothermal titration calorimetry (ITC).

E. coli MenE = molecular target: T2, E. coli MenE (Escherichia coli, UniProt P37353); assay: MenE-MenB coupled enzyme inhibition assay (DHNA-CoA production at 392 nm); format: biochemical; conditions: for inhibition of MenE (in words): MenE coupled assay; for IC50: ecMenE 50 nM, OSB 60 μM, ATP 240 μM, CoA 240 μM, pH 7.4
T2 construct: His6 (N); made in house; host or cells: E. coli BL21(DE3) pLysS
Experimental: Enzyme inhibition studies were performed in 20 mM NaHPO4 buffer (pH 7.4) containing 150 mM NaCl and 1 mM MgCl2 using a […] coupled assay in which MenE is rate-limiting. […] Reactions were initiated by addition of ecMenE (50 nM), and the production of DHNA-CoA was monitored at 392 nm (ε392=4000 M^−1 cm^−1).
With these linker analogues in hand, their inhibition of E. coli MenE using the previously reported MenE-Meng coupled assay was evaluated (Lu, X. et al. Bioorg. Med. Chem. Lett. 2008, 18, 5963). Consistent with predictions from the docking experiments, all but one of the analogues inhibited MenE, albeit with modest IC50 values compared to OSB-AMS (1) (Table 2).

E. coli MenE (K437A) = molecular target: T3, E. coli MenE (K437A) (Escherichia coli, UniProt P37353, K437A); assay: Isothermal titration calorimetry, MenE K437A lynchpin mutant; format: binding; conditions: ITC
T3 construct: His6 (N); made in house; host or cells: E. coli BL21(DE3) pLysS
T3 sequence (P37353 1-451 K437A): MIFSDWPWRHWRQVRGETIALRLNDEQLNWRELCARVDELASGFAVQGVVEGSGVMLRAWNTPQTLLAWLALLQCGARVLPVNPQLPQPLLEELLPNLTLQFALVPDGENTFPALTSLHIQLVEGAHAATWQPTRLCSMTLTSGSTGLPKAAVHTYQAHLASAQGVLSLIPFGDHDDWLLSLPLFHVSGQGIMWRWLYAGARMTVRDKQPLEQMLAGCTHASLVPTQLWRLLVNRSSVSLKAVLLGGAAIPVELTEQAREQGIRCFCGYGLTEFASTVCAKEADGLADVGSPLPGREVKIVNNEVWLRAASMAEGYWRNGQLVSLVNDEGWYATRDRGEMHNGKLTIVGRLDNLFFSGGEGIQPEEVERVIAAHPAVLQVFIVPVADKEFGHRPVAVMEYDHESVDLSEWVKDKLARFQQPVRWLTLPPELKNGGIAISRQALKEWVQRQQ
Experimental: Based on the nucleotide sequence of MenE (from E. coli strain K-12), the forward primer with the sequence of 5′-[…]-3′ and T7 reverse primer were designed, synthesized, and used to introduce the K437A mutation in E. coli MenE. High-fidelity Phusion polymerase (New England BioLabs) was used for standard polymerase chain reaction amplification and mutagenesis.
as §1
To probe for these interactions experimentally. the binding affinity of m-phenyl ether analogue 5 to wild-type E. coli MenE and the K437A mutant were compared.

MRSA (ATCC BAA-1762) = conditions: MRSA (ATCC BAA1762); Matarlo et al. Biochemistry 2015; cited from earlier work

T2 sequence (P37353 whole entry): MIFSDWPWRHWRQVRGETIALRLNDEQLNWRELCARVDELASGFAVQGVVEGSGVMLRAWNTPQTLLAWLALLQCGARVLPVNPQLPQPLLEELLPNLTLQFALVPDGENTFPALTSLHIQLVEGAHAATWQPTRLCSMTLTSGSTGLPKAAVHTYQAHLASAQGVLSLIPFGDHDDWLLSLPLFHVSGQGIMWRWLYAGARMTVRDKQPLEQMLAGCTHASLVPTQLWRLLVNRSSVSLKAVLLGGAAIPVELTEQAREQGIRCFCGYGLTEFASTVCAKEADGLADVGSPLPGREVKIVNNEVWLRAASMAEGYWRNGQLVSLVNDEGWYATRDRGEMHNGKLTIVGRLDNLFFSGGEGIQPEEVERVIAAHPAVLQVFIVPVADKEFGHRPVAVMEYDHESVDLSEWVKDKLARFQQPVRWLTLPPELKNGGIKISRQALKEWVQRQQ
T1 sequence (P37353 whole entry): as above

Structure (SMILES) | binding in the ITC assay (in words) (E. coli MenE(wt); E. coli MenE) | inhibition of MenE (in words) (E. coli MenE) | IC50 (E. coli MenE) | Kd (E. coli MenE (K437A)) | Kd (E. coli MenE(wt); ITC, 22° C, wild-type E. coli MenE) | MIC (MRSA (ATCC BAA-1762))
Nc1ncnc2c1ncn2[C@@H]1O[C@H](COc2ccc(CCC(=O)c3ccccc3C(=O)O)cc2)[C@@H](O)[C@H]1O [compound 6, 5′-O-([2-(Carboxyl)phenyl]3-(3-hydroxyphenyl)propannyl)adenosine] | no binding | no inhibition; also recorded: did not inhibit MenE | > 200000 nM |  |  | 
Nc1ncnc2c1ncn2[C@@H]1O[C@H](COc2cccc(CCC(=O)c3ccccc3C(=O)O)c2)[C@@H](O)[C@H]1O [compound 5] |  |  | 8100 ± 900 nM | 244 nM | 244 nM and 249 nM | 
Nc1ncnc2c1ncn2[C@@H]1O[C@H](COS(=O)(=O)NC(=O)CCC(=O)c2ccccc2C(=O)O)[C@@H](O)[C@H]1O [OSB-AMS (1)] |  |  |  |  |  | 31.25 µg/mL (≈ 56.8 µM)
Nc1ncnc2c1ncn2[C@@H]1O[C@H](COc2cc(CCC(=O)c3ccccc3C(=O)O)cc(C(F)(F)F)c2)[C@@H](O)[C@H]1O [compound 8] |  | slightly weaker inhibition | 26500 ± 2300 nM |  |  | 
